Assays:
[1] = Fluorescence properties of the cycloaddition products; assay type: physicochemical; conditions: for λem emission wavelength / λex excitation wavelength: of the cycloaddition products 44a-44f and 100a; for Φ quantum yield: of the cycloaddition products 44a-44f and 100a in MeOH, quinine sulfate as the standard
RAW cells = test: WST-1 cytotoxicity test; assay type: cell-based, mouse
Protocol: In order to assess the cytotoxic effect of the reactants, 1 and 6a, as well as product 31, on RAW cells, the cytotoxicity test WST-1 was performed to examine induction by TPCPD (1) and BCN (6a) over varying concentrations and periods of time (FIGS. 3a-c).
Different concentrations of each molecule were assessed: from 0.78 to 100 μM for 1 and 31 and 7.8 to 1000 μM for 6a. Different time points were assessed (1 h, 4 h, 8 h and 24 h). Triton 0.1% was used as a positive control of cytotoxicity and the subsequent value was established as 100% of cytotoxicity.

TNF-α = TNF-α ELISA in LPS treated RAW 264.7 cells pre-treated with CO prodrug; assay type: cell-based, mouse; conditions: pre-treated 5 h, then LPS 1 h
Protocol: RAW 264.7 cells were seeded in the 48-well plate one day before the experiment.
LPS was used to initialize the inflammatory response in RAW 264.7 cells and trigger the expression of cytokines. RAW 264.7 cells were pre-treated with different concentrations of 10b or 44b product for 5 hours. Thereafter, […] LPS was added with into the cell culture media. For TNF-α test, the cell culture supernatant was collected after 1 hour of LPS treatment. For IL-6 test, the cell culture supernatant was collected after 4 hours of LPS treatment. Cell culture without LPS treatment was used as control.
10a-10d, and 100 with different release rates were chosen to test their inhibitory effect against lipopolysaccharide (LPS) induced TNF-α secretion in RAW 264.7 cells. […] This was followed by the treatment of LPS for another 1 h. Then the cell culture supernatants were subjected to ELISA assay for TNF-α levels.

[2] = Determination of CO release rates (fluorescence or UV absorbance); assay type: physicochemical; conditions: DMSO/PBS (4:1) at 37° C.
Protocol: For CO prodrugs with naphthalene scaffold, the CO release rate is easily done by monitoring the fluorescence intensity of the cyclized product. For the others, the CO release rate was determined by employing the UV absorbance difference between the prodrugs and the cyclized product.

[3] = Kinetics of the Diels-Alder reaction of TPCPD with exo-BCN (UV-Vis); assay type: physicochemical
Protocol: Separate solutions of pure TPCPD (1) and pure exo-BCN (6a) (>95-98% by H-NMR) were prepared in HPLC-grade methanol (acetonitrile, 1,2-dichloroethane, dioxane) at room temperature. The stability of TPCPD in methanol (25 μM) was examined by monitoring its absorption maximum at 335 nm. The solutions containing TPCPD (1, 50 μM, 400 μL) and 18-fold excess of exo-BCN (6a, 900 μM, 400 μL) were added into quartz cuvettes, thoroughly mixed and sealed with a PTFE cap. All kinetic runs were triplicates. Curve fitting was operated in Prism5 software.
The reaction between 1 and 6a (Scheme 8) leads to significant changes in the UV-Vis spectrum of TPCPD […] due to its conversion to the cyclization product 31 (FIG. 1a). Therefore, the reaction can be easily monitored.
It was observed that the reaction rate between TPCPD and BCN was moderately sensitive to the reaction solvent. Methanol, acetonitrile, […] (DCE), and dioxane were chosen for the kinetic studies. The reaction appears to be faster in polar solvents than in nonpolar solvents. […] In order to utilize the reaction under physiological conditions, the reaction rate was measured at physiological temperature, 37° C.

C#CCOC(=O)C1=C2C(=C(c3ccccc3)C1=O)c1cccc3cccc2c13 [Compound 10e]
λem emission wavelength [1]: 454 nm | λex excitation wavelength [1]: 367 nm | Φ quantum yield [1]: 0.14

C#CCNC(=O)C1=C2C(=C(c3ccccc3)C1=O)c1cccc3cccc2c13 [Compound 10f]
λem emission wavelength [1]: 456 nm | λex excitation wavelength [1]: 370 nm | Φ quantum yield [1]: 0.18

OC[C@@H]1[C@H]2CCc3c(c(-c4ccccc4)c(-c4ccccc4)c(-c4ccccc4)c3-c3ccccc3)CC[C@@H]12 [Compound 31]
cytotoxicity (RAW cells; 8 h, within the concentration range studied): Neither 6a (FIG. 3b) and nor the product (FIG. 3c) displayed any sign of cytotoxicity | cytotoxicity (RAW cells; 24 h, within the concentration range tested): not cytotoxic

Cc1c2c(c3c(c1-c1ccccc1)-c1cccc4cccc-3c14)C(=O)N(C(C)C)CC2 [Compound 44c]
LPS-induced TNF-α expression / secretion (TNF-α): did not show any TNF-α suppression effects

CN1Cc2c(c3c(c(-c4ccccc4)c2[Si](c2ccccc2)(c2ccccc2)C(C)(C)C)-c2cccc4cccc-3c24)C1=O [Compound 44d]
LPS-induced TNF-α expression / secretion (TNF-α): did not show any TNF-α suppression effects

C#CC(C)OC(=O)C1=C2C(=C(c3ccccc3)C1=O)c1cccc3cccc2c13 (centres unmarked) [Compound 104]
K CO release [2]: 0.012 ± 0.0003 h⁻¹

C#CC(C)(C)OC(=O)C1=C2C(=C(c3ccccc3)C1=O)c1cccc3cccc2c13 [Compound 105]
K CO release [2]: 1.28 ± 0.183 h⁻¹

C#CC(C)NC(=O)C1=C2C(=C(c3ccccc3)C1=O)c1cccc3cccc2c13 (centres unmarked) [Compound 108]
K CO release [2]: 0.058 ± 0.003 h⁻¹

C#CC(C)(C)NC(=O)C1=C2C(=C(c3ccccc3)C1=O)c1cccc3cccc2c13 [Compound 109]
K CO release [2]: 3.31 ± 0.28 h⁻¹

C#CCCN(CCN1CCOCC1)C(=O)C1=C2C(=C(c3ccccc3)C1=O)c1cccc3cccc2c13 [Compound 110]
time in which CO release was finished [2]: CO release was finished in 4 h.

C#CC(C)(C)NC(=O)C1=C2C(=C(SC)C1=O)c1cccc3cccc2c13 [Compound 111]
K CO release [2]: 4.63 ± 0.28 h⁻¹

C#CC(C)(C)OC(=O)C1=C2C(=C(SC)C1=O)c1cccc3cccc2c13 [Compound 112]
K CO release [2]: 1.29 ± 0.07 h⁻¹

C#CCOC(=O)C1=C(c2ccccc2)C(c2ccccc2)=C(c2ccccc2)C1=O [Compound 119]
K CO release [2]: 5.89 ± 0.61 h⁻¹

C#CC(C)OC(=O)C1=C(c2ccccc2)C(c2ccccc2)=C(c2ccccc2)C1=O (centres unmarked) [Compound 120]
K CO release [2]: 9.4 ± 0.02 h⁻¹

C#CC(C)Oc1ccccc1C1=C2C(=C(C(=O)N3CCOCC3)C1=O)c1cccc3cccc2c13 (centres unmarked) [Compound 125]
K CO release [2]: 0.10 ± 0.003 h⁻¹

C#CCN(c1ccccc1C1=C2C(=C(C(=O)N3CCOCC3)C1=O)c1cccc3cccc2c13)S(C)(=O)=O [Compound 127]
K CO release [2]: 0.88 ± 0.01 h⁻¹

O=C1C(c2ccccc2)=C(c2ccccc2)C(c2ccccc2)=C1c1ccccc1 [TPCPD]
toxicity (Triton 0.1% = 100%) (RAW cells; 8 h, 50 μM): 44% | toxicity (Triton 0.1% = 100%) (RAW cells; 8 h, 100 μM): 49% | cytotoxicity (RAW cells; 24 h, concentrations higher than 12.5 μM): more than 50% | k2 second order rate constant ([3]; CH3CN, r.t.): 0.26 M⁻¹ s⁻¹ | k2 second order rate constant ([3]; DCE, r.t.): 0.17 M⁻¹ s⁻¹ | k2 second order rate constant ([3]; Dioxane, r.t.): 0.096 M⁻¹ s⁻¹ | k2 second order rate constant ([3]; MeOH, 37° C.): 1.1 M⁻¹ s⁻¹ | k2 second order rate constant ([3]; MeOH, r.t.): 0.50 M⁻¹ s⁻¹
